Assay results from patent US20230180804A1, “FLAVOR COMPOSITION, AND FOOD AND BEVERAGE” (TAKASAGO INTERNATIONAL CORPORATION, priority 2020, published 2023).

Test: Sensory evaluation of p-cresol odor masking in p-cresol-containing citrus-flavored confectionery (tablet)
Conditions: for p-Cresol Odor Intensity: tablet with 200 ppb p-cresol, average score of 6 panelists, scale 0-4
Method: Lemon cold-pressed oil was added to the tablet having the composition presented in Table A at a concentration of 1 % by mass, and medium chain fatty acid triglycerides (MCT) was used to adjust p-cresol to a concentration of 0.1%, which was further added so as to reach 200 ppb in the citrus flavored confectionery. To this p-cresol-containing citrus-flavored confectionery, 1-oxacycloheptadecan-7-en-2-one was added at the concentrations presented in Table 12, and then tableting was performed to confirm the p-cresol odor intensity (masking effect) and the influence on the citrus flavor of each sample.
Six skilled panelists were selected to perform the same sensory evaluation as in Example 1. The results are as in Table 12, presenting the average score of the evaluation results for each panelist.

[1] = citrus-flavored confectionery (tablet) with 200 ppb p-cresol

O=C1CCCCCCCCCCCCCCO1 [Pentalide, pentalide]
p-Cresol Odor Intensity (4 ppb added): 2.3 points | p-Cresol Odor Intensity (40 ppb added): 1.7 points | p-Cresol Odor Intensity (40 ppt added): 2.8 points | p-Cresol Odor Intensity (400 ppb added): 1.5 points | p-Cresol Odor Intensity (400 ppt added): 2.7 points | concentration at which the compound masks the p-cresol odor and does not affect the citrus flavor, lower limit [1]: ≥ 400 ppt | concentration at which the compound masks the p-cresol odor and does not affect the citrus flavor, upper limit [1]: ≤ 400 ppb
